Structures are written as SMILES.

A word on the IC50: it is the concentration that inhibits the measured activity by half.

One assay has as its target T1, human EHMT2 913-1193 (Homo sapiens, UniProt Q96KQ7).
T1 construct: recombinant purified human EHMT2 913-1193, Viva; purchased Viva
T1 sequence (Q96KQ7 913-1193): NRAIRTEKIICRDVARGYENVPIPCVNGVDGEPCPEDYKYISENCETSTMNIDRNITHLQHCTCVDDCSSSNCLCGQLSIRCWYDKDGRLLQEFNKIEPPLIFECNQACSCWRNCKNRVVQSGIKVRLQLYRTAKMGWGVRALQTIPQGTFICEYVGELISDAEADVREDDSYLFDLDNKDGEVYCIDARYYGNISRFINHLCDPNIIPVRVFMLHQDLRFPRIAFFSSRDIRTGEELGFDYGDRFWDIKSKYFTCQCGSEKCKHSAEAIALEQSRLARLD
Description: EHMT2 enzyme assay on histone peptide substrate. The following applies: Table 3; histone H3 1-15 peptide, balanced conditions; read-out: EHMT2 PEP (IC50 μM). The class given is biochemical. The text has this:
Recombinant purified human EHMT2 913-1193 ([…]) synthesized by Viva was used for all experiments. Biotinylated histone peptides were synthesized by Biopeptide and HPLC-purified to >95% purity. Streptavidin Flashplates and seals were purchased from PerkinElmer and 384 Well V-bottom Polypropylene Plates were from Greiner. ^3H-labeled S-adenosylmethionine (^3H-SAM) was obtained from American Radiolabeled Chemicals with a specific activity of 80 Ci/mmol. Unlabeled SAM and S-adenosylhomocysteine (SAH) were obtained from American Radiolabeled Chemicals and Sigma-Aldrich respectively. Flashplates were washed in a Biotek ELx-405 with 0.1% Tween. 384-well Flashplates and 96-well filter binding plates were read on a TopCount microplate reader (PerkinElmer). Compound serial dilutions were performed on a Freedom EVO (Tecan) and spotted into assay plates using a Thermo Scientific Matrix PlateMate (Thermo Scientific). Reagent cocktails were added by Multidrop Combi (Thermo Scientific).
10-point curves of test compounds were made on a Freedom EVO (Tecan) using serial 3-fold dilutions in DMSO, beginning at 2.5 mM (final top concentration of compound was […] and the DMSO was 2%). A 1 μL aliquot of the inhibitor dilution series was spotted in a polypropylene 384-well V-bottom plate (Greiner) using a Thermo Scientific Matrix PlateMate (Thermo Scientific). The 100% inhibition control consisted of 1 mM final concentration of the product inhibitor S-adenosylhomocysteine (SAH, Sigma-Aldrich). Compounds were incubated for 30 minutes with 40 μL per well of 0.031 nM EHMT2 (recombinant purified human EHMT2 913-1193, Viva) in 1× assay buffer (20 mM Bicine [pH 7.5], 0.002% Tween 20, 0.005% Bovine Skin Gelatin and 1 mM TCEP). 10 μL per well of substrate mix comprising assay buffer, ^3H-SAM (^3H-labeled S-adenosylmethionine, American Radiolabeled Chemicals, specific activity of 80 Ci/mmol), unlabeled SAM (American Radiolabeled Chemicals), and peptide representing histone H3 residues 1-15 containing C-terminal biotin (appended to a C-terminal amide-capped lysine, synthesized by Biopeptide and HPLC-purified to greater than 95% purity) were added to initiate the reaction (both substrates were present in the final reaction mixture at their respective Km values, an assay format referred to as “balanced conditions”). Reactions were incubated for 60 minutes at room temperature and quenched with 10 μL per well of 400 μM unlabeled SAM, then transferred to a 384-well streptavidin Flashplate (PerkinElmer) and washed in a Biotek ELx-405 well washer with 0.1% Tween after 60 minutes. 384-well Flashplates were read on a TopCount microplate reader (PerkinElmer).
`CNc1cc(C)nc(Nc2ccc(OC)c(CNC[C@@H](C)N3CCCC3)c2)n1` [Compound 42]: the IC50 is 0.1 to 1 µM.
Consider `CNc1cc(C)nc(Nc2ccc(OC)c(CNC[C@H](C)N3CCCC3)c2)n1` [Compound 43], for which the IC50 is greater than 10 µM.
As for `CNc1cc(C)nc(Nc2ccc(OC)c(C#CC[N+](C)(C)CCN)c2)n1` [Compound 45], the IC50 is greater than 10 µM.
On to `CNc1cc(C)nc(Nc2ccc(OC)c(CN[C@@H](C)CN3CCCC3)c2)n1` [Compound 47], for which the IC50 was in the range of 0.1 to 1 µM.
As to `CNc1cc(C)nc(Nc2ccc(OC)c(CN[C@H](C)CN3CCCC3)c2)n1` [Compound 48], the IC50 was 1 to 10 µM.
The same measure, in the same setting: under `CNc1cc(C)nc(Nc2ccc(OC)c(C#CCNCCN(C)C)c2)n1` [Compound 49] stands 1 to 10 µM.

Staying with this assay, now noted: Table 3A; histone H3 1-15 peptide, balanced conditions; read-out: EHMT2 (IC50 μM).
With `CNCc1cn(-c2cc(Nc3nc(C)cc(NC)n3)ccc2Cl)nn1` [Compound A1], the IC50 is less than 0.01 µM.
Still for that read-out and setting: under `CNC1=Nc2cc(-n3cc([C@H]4CCCN4)nn3)c(Cl)cc2C12CCC2` [Compound A2R, (R)-5′-chloro-N-methyl-6′-(4-(pyrrolidin-2-yl)-1H-1,2,3-triazol-1-yl)spiro[cyclobutane-1,3′-indol]-2′-amine] stands less than 0.01 µM; under `CNC1=Nc2cc(-n3cc([C@@H]4CCCN4)nn3)c(Cl)cc2C12CCC2` [Compound A2S, (S)-5′-chloro-N-methyl-6′-(4-(pyrrolidin-2-yl)-1H-1,2,3-triazol-1-yl)spiro[cyclobutane-1,3′-indol]-2′-amine], 0.1 to 1 µM.
Take `CNC1=Nc2cc(-n3cc(C4CCCN4)nn3)c(Cl)cc2C12CCC2` (centres unmarked) [Compound A2]: the 50% inhibitory concentration (IC50) was 0.01 to 0.1 µM.
Take `CNCc1cn(-c2c(OC)ccc(Nc3nc(C)cc(NC)n3)c2F)nn1` [Compound A3, N2-(2-fluoro-4-methoxy-3-[4-[(methylamino)methyl]-1H-1,2,3-triazol-1-yl]phenyl)-N4,6-dimethylpyrimidine-2,4-diamine]: the concentration for half-maximal inhibition (IC50) lay in the range of 0.01 to 0.1 µM.
The same measure, in the same setting: as for `CNc1cc(C)nc(Nc2ccc(OC)c(-n3cc([C@H]4CCCN4)nn3)c2F)n1` [Compound A4R], the figure is 0.01 to 0.1 µM.
Turning to `CNc1cc(C)nc(Nc2ccc(OC)c(-n3cc([C@@H]4CCCN4)nn3)c2F)n1` [Compound A4S], the IC50 was 0.1 to 1 µM.
As for `CNc1cc(C)nc(Nc2ccc(OC)c(-n3cc(C4CCCN4)nn3)c2F)n1` (centres unmarked) [Compound A4], the IC50 was 0.01 to 0.1 µM.
In the case of `CNc1cc(C)nc(Nc2ccc(OC)c(-n3cc(CNC(C)C)cn3)c2F)n1` [Compound A5], the 50% inhibitory concentration (IC50) was in the range of 0.1 to 1 µM.
Consider `CNc1cc(C)nc(Nc2ccc(Cl)c(-n3cc(CN)cn3)c2Cl)n1` [Compound A6], for which the IC50 is less than 0.01 µM.
In the case of `CCNCc1cnn(-c2c(OC)ccc(Nc3nc(C)cc(NC)n3)c2F)c1` [Compound A7], the IC50 lay in the range of 0.1 to 1 µM.
For `CNCc1cnn(-c2c(OC)ccc(Nc3nc(NC)cc(C(C)C)n3)c2F)c1` [Compound A8, N^2-(2-fluoro-4-methoxy-3-[4-[(methylamino)methyl]-1H-pyrazol-1-yl]phenyl)-N^4-methyl-6-(propan-2-yl)pyrimidine-2,4-diamine], the IC50 lay within 0.01 to 0.1 µM.
For `CNc1cc(C)nc(Nc2ccc(OC)c(-n3ncc4c3CCNC4)c2F)n1` [Compound A9, N2-(2-fluoro-4-methoxy-3-(4,5,6,7-tetrahydro-1H-pyrazolo[4,3-c]142yridine-1-yl)phenyl)-N4,6-dimethylpyrimidine-2,4-diamine], the IC50 fell in the range of 0.1 to 1 µM.
For `CNC1=Nc2cc(-c3cc4n(n3)CCNC4)c(Cl)cc2C12CCC2` [Compound A10, 5′-chloro-N-methyl-6′-(4,5,6,7-tetrahydropyrazolo[1,5-a]pyrazin-2-yl)spiro[cyclobutane-1,3′-indol]-2′-amine], the IC50 lay within 0.1 to 1 µM.
Still for that read-out and setting: as for `CNCc1cn(-c2cc3c(cc2Cl)C2(CCC2)C(NC)=N3)nn1` [Compound A11, 5′-chloro-N-methyl-6′-(4-((methylamino)methyl)-1H-1,2,3-triazol-1-yl)spiro[cyclobutane-1,3′-indol]-2′-amine], the figure is 0.01 to 0.1 µM; as for `CNC1=Nc2cc(-c3cc4n(n3)CCN(C)C4)c(Cl)cc2C12CCC2` [Compound A12, 5′-chloro-N-methyl-6′-(5-methyl-4,5,6,7-tetrahydropyrazolo[1,5-a]145yrazine-2-yl)spiro[cyclobutane-1,3′-indol]-2′-amine], greater than 1 µM.
In the case of `CNCc1cn(-c2c(Cl)ccc(Nc3nc(C)cc(NC)n3)c2Cl)nn1` [Compound A13, N2-(2,4-dichloro-3-(4-((methylamino)methyl)-1H-1,2,3-triazol-1-yl)phenyl)-N4,6-dimethylpyrimidine-2,4-diamine], the half-maximal inhibitory concentration (IC50) was less than 0.01 µM.
Same read-out and setting: as for `CNCc1cc(-c2c(OC)ccc(Nc3nc(C)cc(NC)n3)c2F)no1` [Compound A14, N2-(2-fluoro-4-methoxy-3-[5-[(methylamino)methyl]-1,2-oxazol-3-yl]phenyl)-N4,6-dimethylpyrimidine-2,4-diamine], the figure is 0.01 to 0.1 µM; as for `CNCc1cn(-c2cc3c(cc2Cl)C2(CCC2)C(N)=N3)nn1` [Compound A15, 5′-chloro-6′-(4-((methylamino)methyl)-1H-1,2,3-triazol-1-yl)spiro[cyclobutane-1,3′-indol]-2′-amine], 0.01 to 0.1 µM.
`CNC1=Nc2cc(-n3cc(CN4CCC4)cn3)c(Cl)cc2C12CCC2` [Compound A17, 6′-(4-(azetidin-1-ylmethyl)-1H-pyrazol-1-yl)-5′-chloro-N-methylspiro[cyclobutane-1,3′-indol]-2′-amine]: the 50% inhibitory concentration (IC50) was in the range of 0.01 to 0.1 µM.
Regarding `CNc1cc(C)nc(Nc2ccc(OC)c(-n3cc4c(n3)CCNC4)c2F)n1` [Compound A19, N2-(2-fluoro-4-methoxy-3-(4,5,6,7-tetrahydro-2H-pyrazolo[4,3-c]pyridin-2-yl)phenyl)-N4,6-dimethylpyrimidine-2,4-diamine], the half-inhibitory concentration (IC50) was 0.1 to 1 µM.
On to `CNCc1cn(-c2c(OC)cc3c(c2F)N=C(NC)C32CCC2)nn1` [Compound A21], for which the IC50 lay within 0.01 to 0.1 µM.
Take `CNCc1cn(-c2c(OC)cc3c(c2F)N=C(N)C32CCC2)nn1` [Compound A22]: the IC50 is 0.01 to 0.1 µM.

The values are drawn from patent publication US20200317642A1, “AMINE-SUBSTITUTED HETEROCYCLIC COMPOUNDS AS EHMT2 INHIBITORS AND DERIVATIVES THEREOF” (Epizyme, Inc., priority 2017, published 2020).
